In patent EP3685668B1, “COMPOSITION COMPRISING ACIBENZOLAR-S-METHYL AS EFFECTIVE INGREDIENT FOR CONTROLLING BURSAPHELENCHUS XYLOPHILUS DISEASE AND METHOD FOR CONTROLLING BURSAPHELENCHUS XYLOPHILUS USING SAME” (Industry Foundation of Chonnam National University, priority 2017, dated 2019):

Key:
Assay in all cases: qRT-PCR expression of induced resistance gene in pine tree callus
Assay type in all cases: cell-based
Conditions in all cases: 200 µg/mℓ, 24 hours
[1] = test system: Antipeptide
Protocol: (§1) For in vitro analysis of induced resistance, the expression of PR genes and other plant defense-related genes was determined, which are evolved in various defense mechanisms including induced resistance. The primers of sixteen induced resistance-related genes of pine tree used in this invention were listed in the below and elongation factor_1 alpha were used as a reference gene. [Table 4] The primer list of defense resistance-related genes
(§2) After the treatment with 200 µg / mℓ of candidates of the selected induced resistance material, expression of the induced resistance-related gene in pine callus was determined by qRT-PCR using the primer pairs of defense resistance-related genes in Table 4. As a candidate group of an induced resistance material in pine tree, acibenzolar-S-methyl (ASM), TDL (Tiadinil), ITL (Isotianil), PBZ (Probenzole), AZO (Azoxystrobin), VMA (Validamycin A), MeJA (Methyl jasmonate), BABA (DL-3-aminobutyric acid), 2,3-BDO (2,3-Butanediol), GABA (r-Aminobutyric acid), glucan (Glucan), ER (Ergosterol), and AZA (Azelaic acid) were used. For the in vitro analysis of the expression of induced resistance gene in pine callus, the selected induced resistance materials were applied with 500 µℓ of LM liquid medium on a surface of pine tree callus (100 mg) in 12-well microplate to give final concentration of 200 µg/mℓ. Then, the callus surface was sufficiently reacted for 24 hours with the candidate of pine tree induced resistance material by shaking at 50 rpm in a 25 °C shaking incubator under dark condition. RNAs were extracted from the callus after completion of the reaction with an induced resistance material, followed by synthesis of cDNAs. Then, by carrying out qRT-PCR, the expression of induced resistance genes was determined. [Table 5] Expression of induced resistance gene in pine tree callus by TDL, PBZ, ASM, ITL, AZO, VMA, glucan, and AZA
(§3) Based on the results of assay using young plants and gene expression by selected induce resistance materials, it seemed that acibenzolar-S-methyl had the most excellent effect. Thus, the following tests were carried out using acibenzolar-S-methyl only. Expression of the induced resistance genes at different culture time after the chemical treatment was examined. For the in vitro assay, LM medium containing pine tree callus was treated with acibenzolar-S-methyl at concentration of 200 µg / mℓ, followed by reaction for 1 day, 7 days, or 14 days in a 25°C shaking incubator under dark condition. RNAs were extracted from the callus after the reaction followed by synthesis of cDNAs. Then, by carrying out qRT-PCR, the expression of the induced resistance genes was determined. Depending on reaction time after the treatment, i.e., after 1 day, 7 days, or 14 days, the expression of the obtained induced resistance genes was examined. As a result of the in vitro callus assay depending on reaction time after the treatment with acibenzolar-S-methyl, the expression of the induced resistance-related genes is the highest at 1 day after the treatment with acibenzolar-S-methyl and gradually diminished over time, as it is shown in Table 7. In this regard, it is contemplated that the expression of genes acquired by acibenzolar-S-methyl is not maintained in highly expressed state until the pathogen invasion and just memorized with at minimum level so that the energy consumption by plant can be efficiently managed. [Table 7] Expression of induced resistance gene in pine tree callus by acibenzolar-S-methyl depending on reaction time
(§4) To have an in vitro assay according to different methods of treatment with acibenzolar-S-methyl, two separate treatment methods, i.e., surface treatment (spraying treatment) of pine tree callus and direct application of the induced resistance material to an LM medium containing pine tree callus, were performed. […]

[2] = test system: Extensin
Protocol: as §1, §2, §3, §4

[3] = test system: Heat shock 70
Protocol: as §1, §2, §3, §4

[4] = test system: Hydroxyproline
Protocol: as §1, §2, §3, §4

[5] = test system: Metallothionein
Protocol: as §1, §2, §3, §4

[6] = test system: PR_10 family
Protocol: as §1, §2, §3, §4

[7] = test system: PR_1b family
Protocol: as §1, §2, §3, §4

[8] = test system: PR_2 family
Protocol: as §1, §2, §3, §4

[9] = test system: PR_3 family class 1
Protocol: as §1, §2, §3, §4

[10] = test system: PR_3 family class 4
Protocol: as §1, §2, §3, §4

[11] = test system: PR_4 family
Protocol: as §1, §2, §3, §4

[12] = test system: PR_5 family
Protocol: as §1, §2, §3, §4

[13] = test system: PR_9 family
Protocol: as §1, §2, §3, §4

[14] = test system: Xyloglucan
Protocol: as §1, §2, §3, §4

CC(O)C(C)O (centres unmarked) [2,3-BDO, 2,3-Butanediol]
Expression of induced resistance gene, Antipeptide [1]: 1.31 | Expression of induced resistance gene, Extensin [2]: 1.07 | Expression of induced resistance gene, Heat shock 70 [3]: 1.29 | Expression of induced resistance gene, Hydroxyproline [4]: 0.83 | Expression of induced resistance gene, Metallothionein [5]: 2.53 | Expression of induced resistance gene, PR_10 family [6]: 0.86 | Expression of induced resistance gene, PR_1b family [7]: 4.36 | Expression of induced resistance gene, PR_2 family [8]: 1.26 | Expression of induced resistance gene, PR_3 family class 1 [9]: 2.78 | Expression of induced resistance gene, PR_3 family class 4 [10]: 0.33 | Expression of induced resistance gene, PR_4 family [11]: 1.41 | Expression of induced resistance gene, PR_5 family [12]: 1.13 | Expression of induced resistance gene, PR_9 family [13]: 1.22 | Expression of induced resistance gene, Xyloglucan [14]: 1.13
